Results reported in ChEMBL document CHEMBL5042474, “Structure-Guided Discovery of Potent and Selective DYRK1A Inhibitors” (J Med Chem, 2021).

Columns and labels:
A2780 = experiment: Antitumor activity against human A2780 cells xenografted in Balb/c mouse assessed as inhibition of tumor growth at 9.5 mg/kg, po bid for 14 days relative to control; assay type: functional; conditions: 336 h, time 14 day, read-out: TGI
RS4-11 [1] = experiment: Antitumor activity against human RS4-11 cells xenografted in BALB/c nu/nu mouse assessed as reduction in DYRK1A autophosphorylation of S520 residue at 25 mg/kg, po measured after 2 hrs by western blotting analysis relative to control; assay type: functional; set-up: scale not given: the % may be the effect or the level left
SK-N-MC = experiment: cells; conditions: Homo sapiens
RS4-11 [2] = experiment: Antitumor activity against human RS4-11 cells xenografted in BALB/c nu/nu mouse assessed as reduction in DYRK1A autophosphorylation of S520 residue at 12.5 mg/kg, po measured after 6 hrs by western blotting analysis relative to control; assay type: functional; set-up: scale not given: the % may be the effect or the level left
[3] = target: Ribosomal protein S6 kinase alpha-4 (Homo sapiens) (UniProt O75676); experiment: Residual activity of RPS6KA4 (unknown origin) at 10 nM using Ulight-MBP as substrate and ATP as co-substrate incubated for 40 mins and measured after 1 hr by TR-FRET assay relative to control; conditions: time 100.0 min
Chain of Ribosomal protein S6 kinase alpha-4 (Homo sapiens) (O75676 whole entry, looked up): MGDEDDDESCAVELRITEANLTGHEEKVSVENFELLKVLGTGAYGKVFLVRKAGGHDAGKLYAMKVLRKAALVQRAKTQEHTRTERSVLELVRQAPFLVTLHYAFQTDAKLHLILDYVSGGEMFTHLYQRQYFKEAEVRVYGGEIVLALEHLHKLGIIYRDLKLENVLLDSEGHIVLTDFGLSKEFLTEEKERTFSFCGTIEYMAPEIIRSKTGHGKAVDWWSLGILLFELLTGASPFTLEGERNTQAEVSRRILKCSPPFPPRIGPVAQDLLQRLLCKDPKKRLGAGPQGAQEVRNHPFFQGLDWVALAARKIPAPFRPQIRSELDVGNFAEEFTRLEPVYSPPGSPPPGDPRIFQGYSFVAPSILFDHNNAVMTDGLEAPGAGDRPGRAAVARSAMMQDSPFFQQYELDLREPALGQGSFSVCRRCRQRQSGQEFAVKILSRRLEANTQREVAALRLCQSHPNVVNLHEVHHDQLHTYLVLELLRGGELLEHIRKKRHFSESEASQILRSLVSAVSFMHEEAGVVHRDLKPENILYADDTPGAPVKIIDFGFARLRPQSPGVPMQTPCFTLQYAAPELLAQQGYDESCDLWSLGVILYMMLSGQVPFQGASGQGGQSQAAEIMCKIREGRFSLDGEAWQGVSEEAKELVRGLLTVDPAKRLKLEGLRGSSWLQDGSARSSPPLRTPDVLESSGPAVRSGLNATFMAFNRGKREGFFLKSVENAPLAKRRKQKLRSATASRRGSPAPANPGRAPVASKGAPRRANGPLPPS

IC50 (SK-N-MC): 0.077 µM | residual activity [3]: 61%
SMILES: Cc1nc2ccc(-c3cc(N)nc(N)c3)nc2n1C1CC1
inhibition in vivo at 9.5 mg/kg (A2780): 28% | Activity (RS4-11 [1]): 87% | Activity (RS4-11 [2]): 84%
